In paper PMC10051798, “Thiosemicarbazide Derivatives Targeting Human TopoIIα and IDO-1 as Small-Molecule Drug Candidates for Breast Cancer Treatment” (International Journal of Molecular Sciences, 2023):
Several values for one entry are separate records, joined by “and”; a condition that tells them apart may be missing. Equal values may be shown once.

How the values were obtained:
[1] = tested on: MCF-10A cells; experiment: MTT viability assay, normal breast epithelial cells; format: cell-based, human; details: for IC50: Homo sapiens, MCF-10A, MTT, 24 h; for SIMCF-7 (selectivity index): IC50 MCF-10A/IC50 MCF-7; for SIMDA-MB-231 (selectivity index): IC50 MCF-10A/IC50 MDA-MB-231
Experimental: Human breast cancer cells, i.e., MCF-7 (estrogen-dependent breast cancer cells) and MDA-MB-231 (estrogen-independent breast cancer cells), as well as normal human breast epithelial cells (MCF-10A) were purchased from the American Type Culture Collection (ATCC, Manassas, VA, USA). MCF-7 and MDA-MB-231 cells were cultured in DMEM (Sigma Aldrich, St. Louis, MO, USA) supplemented with 10% fetal bovine serum (FBS), penicillin (100 U/mL) and streptomycin (100 μg/mL). MCF-10A cells were cultured in Mammary Epithelial Cell Growth Medium supplemented with BPE, hEGF, insulin, hydrocortisone, GA-1000 (Lonza, Basel, Switzerland), 10% fetal bovine serum (FBS), penicillin (100 U/mL) and streptomycin (100 μg/mL). The cells were grown in T25 Cell Culture EasyFlask (Nunc, Roskilde, Denmark) at 37 °C in a humidified atmosphere of 5% CO2.
MTT assays were performed to evaluate the cytotoxic activity of the investigated compounds (1–3) against MCF-10A cells. Asuspension of cells (1 × 10^5 cells/mL) was distributed onto 96-well plates at a volume of 100 μL/well. After attachment, the cells were treated with increased concentrations of the tested compounds in medium containing 2% FBS, and incubated for 24 h. Then, 15 μL of MTT working solution (5 mg/mL in PBS) was added to each well and the plates were incubated for 3 h. Subsequently, 100 μL of 10% SDS solution was added to each well in order to dissolve the formazan formed. After overnight incubation at 37 °C, the absorbance of the obtained solution was measured at λ= 570 nm using a microplate reader (Epoch, BioTek Instruments, Inc., Winooski, VT, USA). At least two independent experiments were performed in triplicate. IC50 values of the tested compounds were calculated using the IC50 online calculator [27].

[2] = target: T1, BCRP in MCF-7 cells (Homo sapiens, UniProt Q9UNQ0); experiment: MDR transporter activity assay, BCRP in MCF-7; format: cell-based; details: MCF-7, 10 µg/mL, 24 h
T1 construct: endogenous in cells; host or cells: MCF-7 and MDA-MB-231 cells
T1 sequence (Q9UNQ0 1-655): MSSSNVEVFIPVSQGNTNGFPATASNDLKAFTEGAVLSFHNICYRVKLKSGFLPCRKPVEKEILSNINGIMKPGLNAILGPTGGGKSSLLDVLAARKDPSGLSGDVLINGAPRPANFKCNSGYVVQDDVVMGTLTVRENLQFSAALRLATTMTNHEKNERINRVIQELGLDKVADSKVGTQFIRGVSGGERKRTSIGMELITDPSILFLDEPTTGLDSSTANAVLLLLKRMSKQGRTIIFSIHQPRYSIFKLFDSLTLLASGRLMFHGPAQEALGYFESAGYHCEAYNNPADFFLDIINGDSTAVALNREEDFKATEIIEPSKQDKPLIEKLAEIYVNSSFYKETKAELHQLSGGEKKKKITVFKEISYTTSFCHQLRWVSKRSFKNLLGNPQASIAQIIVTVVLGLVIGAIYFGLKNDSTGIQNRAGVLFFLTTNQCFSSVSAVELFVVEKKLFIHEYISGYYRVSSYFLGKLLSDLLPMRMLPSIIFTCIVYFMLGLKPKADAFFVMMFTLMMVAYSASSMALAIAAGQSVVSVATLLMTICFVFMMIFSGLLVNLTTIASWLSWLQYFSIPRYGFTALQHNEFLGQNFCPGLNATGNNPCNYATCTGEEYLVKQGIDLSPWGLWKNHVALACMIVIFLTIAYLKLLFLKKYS
Experimental: (§1) An MDR Assay kit (Abcam, Cambridge, UK) was used following the manufacturer’s instructions. MCF-7 and MDA-MB-231 cells were incubated with compounds 1–3 (10 μg/mL and 20 μg/mL). After 24 h of incubation, the test cells were washed twice with 5 mL of PBS by centrifugation at 1200 rpm for 10 min. The supernatants were discarded and the cells were counted using a Scepter 3.0 handheld automated cell counter (Milipore, Burlington, MA, USA). Then, each of the tested samples was divided into three parts and analyzed. Tomeasure the activity of MDR1, MRP1 and BCRP (tubes 1–12), 5 μL of verapamil (MDR1 inhibitor) was added into tubes 1–3, 5 μL of MK-571 (MRP1 inhibitor) was added into tubes 4–6, 5 μL of noviobiocin (BCRP inhibitor) was added into tubes 7–9 and 125 μL DMEM with 1 μL of DMSO was added into tubes 10–12. Then, the samples were incubated at 37 °C for five minutes. After this time, 125 μL of Efflux Green Detection Reagent was added into tubes 1–12 and the samples were incubated for 30 min at 37 °C. After 25 min of incubation, 5 μL of PI was added to each tube. Thereafter, the samples were centrifuged for 10 min at 1200 rpm. The supernatants were discarded and the cells were resuspended in 500 μL of PBS and run on the flow cytometer immediately. Measurements were conducted on a BD FACSCanto II flow cytometer using FACSDiva software (version 6.1.3, BD Biosciences, San Diego, CA, USA). […]

[3] = tested on: MRP1/2 in MCF-7 cells; experiment: MDR transporter activity assay, MRP in MCF-7; format: cell-based, human; details: MCF-7, 10 µg/mL, 24 h
Experimental: as §1

[4] = target: T2, MDR1 (p-glycoprotein) in MCF-7 cells (Homo sapiens, UniProt P08183); experiment: MDR transporter activity assay, MDR1 in MCF-7; format: cell-based; details: MCF-7, 10 µg/mL, 24 h
T2 construct: endogenous in cells; host or cells: MCF-7 and MDA-MB-231 cells
T2 sequence (P08183 whole entry): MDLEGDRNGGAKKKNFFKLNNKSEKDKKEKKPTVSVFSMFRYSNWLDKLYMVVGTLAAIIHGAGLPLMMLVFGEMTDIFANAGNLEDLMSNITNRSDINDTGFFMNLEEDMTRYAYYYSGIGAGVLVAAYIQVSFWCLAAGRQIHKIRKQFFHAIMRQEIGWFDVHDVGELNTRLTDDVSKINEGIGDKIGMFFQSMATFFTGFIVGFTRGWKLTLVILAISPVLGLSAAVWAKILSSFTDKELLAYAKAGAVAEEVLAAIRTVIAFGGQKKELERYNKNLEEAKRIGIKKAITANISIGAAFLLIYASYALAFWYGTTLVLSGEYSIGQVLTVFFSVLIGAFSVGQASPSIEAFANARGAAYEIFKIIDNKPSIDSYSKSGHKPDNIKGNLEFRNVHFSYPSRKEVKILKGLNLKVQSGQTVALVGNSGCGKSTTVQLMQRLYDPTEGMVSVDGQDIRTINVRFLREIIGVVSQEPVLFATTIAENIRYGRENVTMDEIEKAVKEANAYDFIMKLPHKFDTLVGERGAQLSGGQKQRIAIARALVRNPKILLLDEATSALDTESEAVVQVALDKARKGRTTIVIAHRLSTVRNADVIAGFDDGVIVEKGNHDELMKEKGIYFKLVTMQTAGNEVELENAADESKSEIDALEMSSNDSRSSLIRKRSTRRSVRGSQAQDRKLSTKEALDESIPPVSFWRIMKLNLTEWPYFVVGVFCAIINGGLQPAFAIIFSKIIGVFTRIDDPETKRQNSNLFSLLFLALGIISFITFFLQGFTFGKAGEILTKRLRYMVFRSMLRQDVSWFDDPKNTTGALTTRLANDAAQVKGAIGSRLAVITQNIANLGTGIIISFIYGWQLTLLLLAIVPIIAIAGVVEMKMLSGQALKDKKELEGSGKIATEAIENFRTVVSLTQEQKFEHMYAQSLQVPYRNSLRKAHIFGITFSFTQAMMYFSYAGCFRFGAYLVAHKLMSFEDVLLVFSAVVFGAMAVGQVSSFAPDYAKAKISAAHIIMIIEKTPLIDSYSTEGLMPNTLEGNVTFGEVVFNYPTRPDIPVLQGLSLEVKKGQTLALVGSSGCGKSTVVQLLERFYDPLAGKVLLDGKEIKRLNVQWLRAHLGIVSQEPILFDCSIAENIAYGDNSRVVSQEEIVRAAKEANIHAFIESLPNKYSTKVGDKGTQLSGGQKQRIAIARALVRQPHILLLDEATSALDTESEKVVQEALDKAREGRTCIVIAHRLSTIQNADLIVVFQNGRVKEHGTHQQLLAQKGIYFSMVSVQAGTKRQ
Experimental: as §1

[5] = tested on: MCF-7 cells; experiment: Cell cycle analysis (PI flow cytometry), MCF-7; format: cell-based, human; details: 24 h
Experimental: Cell cycle analyses of MCF-7 and MDA-MB-231 cells treated with compounds 1–3 and etoposide for 24 h were performed using a FACSCanto II flow cytometer (BD Bioscences Systems, San Diego, CA, USA). After incubation, breast cancer cells were trypsinized and fixed with cold ethanol (70%) and stored overnight at −20 °C. After removing ethanol, the cells were washed three times with PBS, treated with 50 μg/mL of DNase-free RNase A Solution (Promega, Madison, WI, USA) and stained with 100 μg/mL of PI. The results of measurements were analyzed using FCS Express 7 software (De Novo Software, Pasadena, CA, USA).

[6] = target: T3, MDR1 (p-glycoprotein) in MDA-MB-231 cells (Homo sapiens, UniProt P08183); experiment: MDR transporter activity assay, MDR1 in MDA-MB-231; format: cell-based; details: 24 h
T3 construct: endogenous in cells; host or cells: MCF-7 and MDA-MB-231 cells
T3 sequence (P08183 whole entry): as above
Experimental: An MDR Assay kit (Abcam, Cambridge, UK) was used following the manufacturer’s instructions. MCF-7 and MDA-MB-231 cells were incubated with compounds 1–3 (10 μg/mL and 20 μg/mL). After 24 h of incubation, the test cells were washed twice with 5 mL of PBS by centrifugation at 1200 rpm for 10 min. The supernatants were discarded and the cells were counted using a Scepter 3.0 handheld automated cell counter (Milipore, Burlington, MA, USA). Then, each of the tested samples was divided into three parts and analyzed. Tomeasure the activity of MDR1, MRP1 and BCRP (tubes 1–12), 5 μL of verapamil (MDR1 inhibitor) was added into tubes 1–3, 5 μL of MK-571 (MRP1 inhibitor) was added into tubes 4–6, 5 μL of noviobiocin (BCRP inhibitor) was added into tubes 7–9 and 125 μL DMEM with 1 μL of DMSO was added into tubes 10–12. Then, the samples were incubated at 37 °C for five minutes. After this time, 125 μL of Efflux Green Detection Reagent was added into tubes 1–12 and the samples were incubated for 30 min at 37 °C. After 25 min of incubation, 5 μL of PI was added to each tube. Thereafter, the samples were centrifuged for 10 min at 1200 rpm. The supernatants were discarded and the cells were resuspended in 500 μL of PBS and run on the flow cytometer immediately. Measurements were conducted on a BD FACSCanto II flow cytometer using FACSDiva software (version 6.1.3, BD Biosciences, San Diego, CA, USA). […] The calculations followed these formulas:MAFMDR1= 100 × (FMDR1 − F0)/FMDR1 MAFMRP= 100 × (FMRP − F0)/FMRP MAFBCRP= 100 × (FBCRP − F0)/FBCRP
• FMDR—MFI with MDR1 inhibitor (verapamil) • FMRP—MFI with MRP inhibitor (MK-571) • FBCRP—MFI with BCRP inhibitor (novobiocin) • F0—MFI without inhibitor
The theoretical range of the MAF values is between 0 and 100.

Row | MAF BCRP [2] | MAF MDR1 (multidrug resistance activity factor) [4] | MAF MDR1 ([6]; MDA-MB-231, 20 µg/mL) | MAF MDR1 ([6]; MDA-MB-231, 10 µg/mL) | Compound | IC50 [1] | SIMCF-7 (selectivity index) [1] | SIMDA-MB-231 (selectivity index) [1] | MAF MRP [3] | cells in G2/M phase ([5]; MCF-7, 10 µg/mL) [%] | cells in S phase ([5]; MCF-7, 20 µg/mL) [%] | cells in G2/M phase ([5]; MCF-7, 20 µg/mL) [%]
1 | 7.0 | 5.7 | < 20 | – | O=C(NNC(=S)Nc1ccc(/N=N/c2ccccc2)cc1)c1ccccc1[N+](=O)[O-] [Compound 3] | 40.5 µg/mL and 96.2 µM | 5.30 | 3.86 | 5.3 | 35.3 | 49.1 | –
2 | 15.4 | 9.1 | 11.1 | 13.3 | O=C(Cc1cccc2ccccc12)NNC(=S)Nc1ccc(/N=N/c2ccccc2)cc1 [Compound 2] | 42.7 µg/mL and 97.2 µM | 4.65 | 5.60 | 9.9 | – | 40.7 | 32.2
